Laboratory results as given in US11530210B2, “Substituted heteroaromatic pyrazolo-pyridines and their use as GLUN2B receptor modulators” (JANSSEN PHARMACEUTICA NV, priority 2019, dated 2022).

What follows are molecules tested against T1, human GluN1/GluN2B NMDA receptors (Homo sapiens, UniProt Q13224) (assay: Calcium flux (FLIPR) assay on cloned human NR1/GluN2B ion channels expressed in mammalian cells (standard and HTS variants)). Settings: cells expressing human GluN1/GluN2B, glutamate and glycine co-agonists.
T1 construct: expressed in transfected cells
T1 sequence (Q13224 27-1484, other chains not shown): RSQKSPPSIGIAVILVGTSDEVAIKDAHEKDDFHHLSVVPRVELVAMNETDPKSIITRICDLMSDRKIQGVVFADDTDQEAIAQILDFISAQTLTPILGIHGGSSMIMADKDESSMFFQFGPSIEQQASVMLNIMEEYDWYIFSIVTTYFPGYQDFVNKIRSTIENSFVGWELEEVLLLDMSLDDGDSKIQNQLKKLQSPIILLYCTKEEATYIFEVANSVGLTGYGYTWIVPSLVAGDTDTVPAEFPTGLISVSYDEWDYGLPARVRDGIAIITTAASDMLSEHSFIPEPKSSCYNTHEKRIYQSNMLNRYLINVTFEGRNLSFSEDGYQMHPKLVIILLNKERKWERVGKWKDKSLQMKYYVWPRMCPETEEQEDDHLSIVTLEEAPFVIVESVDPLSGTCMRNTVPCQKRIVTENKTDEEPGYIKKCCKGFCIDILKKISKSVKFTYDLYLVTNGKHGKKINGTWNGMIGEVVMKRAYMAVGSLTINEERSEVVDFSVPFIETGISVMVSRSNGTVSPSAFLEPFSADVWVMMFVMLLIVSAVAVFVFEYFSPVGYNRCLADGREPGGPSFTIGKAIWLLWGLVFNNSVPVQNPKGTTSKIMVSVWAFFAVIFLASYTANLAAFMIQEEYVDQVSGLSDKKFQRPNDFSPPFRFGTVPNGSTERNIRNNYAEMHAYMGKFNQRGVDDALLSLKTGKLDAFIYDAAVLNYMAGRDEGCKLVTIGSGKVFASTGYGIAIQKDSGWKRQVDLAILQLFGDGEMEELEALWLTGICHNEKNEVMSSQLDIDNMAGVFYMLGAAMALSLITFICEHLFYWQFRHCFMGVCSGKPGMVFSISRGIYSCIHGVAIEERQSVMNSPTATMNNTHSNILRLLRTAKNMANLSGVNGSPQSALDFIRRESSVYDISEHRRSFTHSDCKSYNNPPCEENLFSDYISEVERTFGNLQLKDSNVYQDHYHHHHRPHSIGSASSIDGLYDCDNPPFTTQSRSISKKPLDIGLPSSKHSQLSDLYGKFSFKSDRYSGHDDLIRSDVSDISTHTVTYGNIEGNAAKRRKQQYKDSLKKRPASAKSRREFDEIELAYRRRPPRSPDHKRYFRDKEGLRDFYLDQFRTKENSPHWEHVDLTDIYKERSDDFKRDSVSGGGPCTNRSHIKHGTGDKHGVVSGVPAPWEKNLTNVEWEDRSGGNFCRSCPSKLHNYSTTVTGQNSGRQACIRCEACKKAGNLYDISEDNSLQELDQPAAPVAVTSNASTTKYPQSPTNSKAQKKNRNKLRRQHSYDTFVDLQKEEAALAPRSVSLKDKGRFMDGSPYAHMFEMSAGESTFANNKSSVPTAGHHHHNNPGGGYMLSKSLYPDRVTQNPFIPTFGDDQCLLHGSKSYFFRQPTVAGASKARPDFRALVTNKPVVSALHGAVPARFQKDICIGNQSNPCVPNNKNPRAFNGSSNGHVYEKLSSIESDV
Type: cell-based
Experimental: Effects of Test Articles on Cloned Human NR1/GuN2B Ion Channels Expressed in Mammalian Cells
NMDA receptors are ion channels that are highly permeable to Ca^2+ ions, rendering it possible to monitor NMDA receptor function using cell-based calcium flux assay. In this assay, co-agonists glutamate and glycine are added to cells heterologously expressing human GluN1/GluN2B NMDA receptors to initiate cellular Ca^2+ influx. The time course of the changes in intracellular calcium is measured using a fluorescent dye and a FLIPR (Fluorometric Imaging Plate Reader) device.
Twenty-four hours before measurements, the expression of the NMDA receptors in the stable cell line is induced with Tet-On inducible system in the presence of a non-selective NMDA receptor blocker. On the day of the experiment, cell culture media is carefully washed, and the cells are loaded with Calcium 5 Dye Kit (Molecular Devices) in dye loading buffer containing 137 mM NaCl, 4 mM KCl, 2 mM CaCl2, 0.5 mM MgCl2 (standard assay) or 1.5 mM MgCl2 (HTS assay), 10 mM HEPES and 5 mM D-glucose; pH 7.4. After 1 h incubation at the room temperature, the dye is washed away with the assay buffer (137 mM NaCl (standard assay) or 150 mM (HTS assay), 4 mM KCl (standard assay) or 3 mM (HTS assay), 2 mM CaCl2), 0.01 mM EDTA, 10 mM HEPES and 5 mM D-glucose; pH 7.4) In the FLIPR TETRA reader, various concentrations of the test compounds are added to the cells for 5 min while fluorescence is monitored to detect potential agonist activity. Next, co-agonists, glutamate and glycine are added for another 5 minutes. The concentration of glutamate corresponding to ˜EC40 (standard assay) or EC40 (HTS assay) is used to maximize the assay's signal window and ability to detect NMDA receptor antagonists and negative allosteric modulators. A saturating concentration (10 μM) of glycine is also present in the assay. A non-selective NMDA receptor antagonist, (+)MK-801 is used as a positive control for antagonist activity. The fluorescent signal in the presence of test compounds is quantified and normalized to the signal defined by the appropriate control wells.

SMILES | IC50 [nM]
CCc1nnc(Cn2ncc3ncc(-c4ccc(F)c(C(F)F)c4)cc32)n1C [Example 76, 6-[3-(Difluoromethyl)-4-fluoro-phenyl]-1-[(5-ethyl-4-methyl-1,2,4-triazol-3-yl)methyl]pyrazolo[4,3-b]pyridine] | 3830
Cc1nnc(Cn2ncc3ncc(-c4ccc(Cl)s4)cc32)o1 [Example 77, 2-[[6-(5-Chloro-2-thienyl)pyrazolo[4,3-b]pyridin-1-yl]methyl]-5-methyl-1,3,4-oxadiazole] | 89
Cc1nnc(Cn2ncc3ncc(-c4ccc(C(F)(F)F)s4)cc32)o1 [Example 78, 2-Methyl-5-[[6-[5-(trifluoromethyl)-2-thienyl]pyrazolo[4,3-b]pyridin-1-yl]methyl]-1,3,4-oxadiazole] | 143
Cc1nnc(Cn2ncc3ncc(-c4ccc(C(F)F)s4)cc32)o1 [Example 79, 2-[[6-[5-(Difluoromethyl)-2-thienyl]pyrazolo[4,3-b]pyridin-1-yl]methyl]-5-methyl-1,3,4-oxadiazole] | 153
Cc1noc(Cn2ncc3ncc(-c4ccc(F)cc4)cc32)n1 [Example 80, 5-[[6-(4-Fluorophenyl)pyrazolo[4,3-b]pyridin-1-yl]methyl]-3-methyl-1,2,4-oxadiazole] | 957
Cc1nnc(Cn2ncc3ncc(-c4cccc(C(C)(F)F)c4)cc32)o1 [Example 82, 2-[[6-[3-(1,1-Difluoroethyl)phenyl]pyrazolo[4,3-b]pyridin-1-yl]methyl]-5-methyl-1,3,4-oxadiazole] | 160
Cc1noc(Cn2ncc3ncc(-c4cccc(C(F)(F)F)c4)cc32)n1 [Example 84, 3-Methyl-5-[[6-[3-(trifluoromethyl)phenyl]pyrazolo[4,3-b]pyridin-1-yl]methyl]-1,2,4-oxadiazole] | 293
Cc1nnc(Cn2ncc3ncc(-c4cccc(C(F)(F)F)c4)cc32)o1 [Example 85, 2-Methyl-5-[[6-[3-(trifluoromethyl)phenyl]pyrazolo[4,3-b]pyridin-1-yl]methyl]-1,3,4-oxadiazole] | 143
FC(F)(F)c1cccc(-c2cnc3cnn(Cc4ncno4)c3c2)c1 [Example 87, 5-[[6-[3-(Trifluoromethyl)phenyl]pyrazolo[4,3-b]pyridin-1-yl]methyl]-1,2,4-oxadiazole] | 383
Cc1nnc(Cn2ncc3ncc(-c4ccnc(C(F)(F)F)c4)cc32)o1 [Example 88, 2-Methyl-5-[[6-[2-(trifluoromethyl)-4-pyridyl]pyrazolo[4,3-b]pyridin-1-yl]methyl]-1,3,4-oxadiazole] | 467
Cc1nnc(Cn2ncc3ncc(-c4ccc(F)c(C)c4)cc32)o1 [Example 89, 2-[[6-(4-Fluoro-3-methyl-phenyl)pyrazolo[4,3-b]pyridin-1-yl]methyl]-5-methyl-1,3,4-oxadiazole] | 37

Other lines, results leading:

IC50 [nM] | SMILES
139 | Cc1nnc(Cn2ncc3ncc(-c4ccc(F)c(C(F)F)c4)cc32)n1C [Example 75, 6-[3-(Difluoromethyl)-4-fluoro-phenyl]-1-[(4,5-dimethyl-1,2,4-triazol-3-yl)methyl]pyrazolo[4,3-b]pyridine]
2310 | COc1cccc(-c2cnc3cnn(Cc4nc(C)no4)c3c2)c1 [Example 81, 5-[[6-(3-Methoxyphenyl)pyrazolo[4,3-b]pyridin-1-yl]methyl]-3-methyl-1,2,4-oxadiazole]
126 | Cc1nnc(Cn2nc(F)c3ncc(-c4cccc(C(C)(F)F)c4)cc32)o1 [Example 83, 2-[[6-[3-(1,1-Difluoroethyl)phenyl]-3-fluoro-pyrazolo[4,3-b]pyridin-1-yl]methyl]-5-methyl-1,3,4-oxadiazole]
202 | Cc1nc(Cn2ncc3ncc(-c4cccc(C(F)(F)F)c4)cc32)no1 [Example 86, 5-Methyl-3-[[6-[3-(trifluoromethyl)phenyl]pyrazolo[4,3-b]pyridin-1-yl]methyl]-1,2,4-oxadiazole]
33 | Cc1nnc(Cn2nc(F)c3ncc(-c4ccc(F)c(C)c4)cc32)o1 [Example 90, 2-[[3-Fluoro-6-(4-fluoro-3-methyl-phenyl)pyrazolo[4,3-b]pyridin-1-yl]methyl]-5-methyl-1,3,4-oxadiazole]
